Measured values: patent publication US20200371122A1, “BIOMARKER FOR SENESCENT CELLS” (Buck Institute for Research on Aging, priority 2017, published 2020)

Columns and labels:
Type in all cases: cell-based, human
[1] = system: SASP factors; assay: qPCR of SASP and PTGS mRNAs in non-senescent cells treated with eicosanoids; settings: 10 μM
Protocol: RNA was extracted from cells or tissues using commercially available kits (Isolate II—Bioline for cells; Direct-zol—Zymo for tissues) according to the manufacturer's instructions. cDNA synthesis was performed using a High Capacity cDNA Reverse Transcription Kit (Thermo Fisher) according to the manufacturer's instructions. Quantitative PCR was performed on a LightCycler 480 II (Roche) using primers and probes designed for the Universal Probe Library. Primers and probes used for human transcripts were ACTB: 5′-CCAACCGCGAGAAGATGA (SEQ ID NO:1), 5′-TCCATCACGATGCCAGTG (SEQ ID NO:2), Probe #64; TUBA: 5′-cttcgtctccgccatcag (SEQ ID NO:3), 5′-ttgccaatctggacacca (SEQ ID NO:4), Probe #58; ALOX5: 5′-[…] (SEQ ID NO:5), 5′-[…] (SEQ ID NO:6), Probe #64; ALOX5AP: 5′-ggtctgcggggctacttt (SEQ ID NO:7), 5′-[…] (SEQ ID NO:8), Probe #18; ALOX12: 5′-[…] (SEQ ID NO:9), 5′-agccaggtcgtcaggag (SEQ ID NO:10), Probe #32; ALOX15: 5′-[…] (SEQ ID NO:11), 5′-[…] (SEQ ID NO:12), Probe #76; ALOX15B: 5′-[…] (SEQ ID NO:13), 5′-actgggaggcgaagaagg (SEQ ID NO:14), Probe #51; AKR1C1: 5′-catgcctgtcctgggattt (SEQ ID NO:15), 5′-[…] (SEQ ID NO:16), Probe #49; AKR1C2: 5′-ctatgcgcctgcagaggt (SEQ ID NO:17), 5′-[…] (SEQ ID NO:18), Probe #31; AKR1C3: 5′-[…] (SEQ ID NO:19), 5′-[…] (SEQ ID NO:20), Probe #78; CYSLTR2: 5′-[…] (SEQ ID NO:21), 5′-[…] (SEQ ID NO:22), Probe #18; DPEP1: 5′-gacgtcctgaggctggtg (SEQ ID NO:23), 5′-[…] (SEQ ID NO:24), Probe #9 (SEQ ID NO:25), ELOVL2: 5′-[…] (SEQ ID NO:26), 5′-[…] (SEQ ID NO:27), Probe #53; ELOVL4: 5′-catttggcccatggattc (SEQ ID NO:28), 5′-[…] (SEQ ID NO:29), Probe #31; ELOVL5: 5′-cccttccatgcgtccata (SEQ ID NO:30), 5′-[…] (SEQ ID NO:31), Probe #31; EPHX2: 5′-ttctgctggacaccctgaa (SEQ ID NO:32), 5′-[…] (SEQ ID NO:33), Probe #45; GPX4: 5′-ttcccgtgtaaccagttcg (SEQ ID NO:34), 5′-[…] (SEQ ID NO:35), Probe #36; LTA4H: 5′-ctgctctcacggtccagtc (SEQ ID NO:36), 5′-[…] (SEQ ID NO:37), Probe #64; LTBR2: 5′-[…] (SEQ ID NO:38), 5′-[…] (SEQ ID NO:39), Probe #33; LTC4S: 5′-[…] (SEQ ID NO:40), 5′-[…] (SEQ ID NO:41), Probe #18; PTGDS: 5′-[…] (SEQ ID NO:42), 5′-[…] […]

[2] = system: IMR-90 fibroblasts; assay: Induction of senescence in non-senescent cells by prostaglandins or 5-LOX pathway products (EdU, SA-B-gal, p21, immunoblot)
Protocol: RNA was extracted from cells or tissues using commercially available kits (Isolate II—Bioline for cells; Direct-zol—Zymo for tissues) according to the manufacturer's instructions. cDNA synthesis was performed using a High Capacity cDNA Reverse Transcription Kit (Thermo Fisher) according to the manufacturer's instructions. Quantitative PCR was performed on a LightCycler 480 II (Roche) using primers and probes designed for the Universal Probe Library. Primers and probes used for human transcripts were ACTB: 5′-CCAACCGCGAGAAGATGA (SEQ ID NO:1), 5′-TCCATCACGATGCCAGTG (SEQ ID NO:2), Probe #64; TUBA: 5′-cttcgtctccgccatcag (SEQ ID NO:3), 5′-ttgccaatctggacacca (SEQ ID NO:4), Probe #58; ALOX5: 5′-[…] (SEQ ID NO:5), 5′-[…] (SEQ ID NO:6), Probe #64; ALOX5AP: 5′-ggtctgcggggctacttt (SEQ ID NO:7), 5′-[…] (SEQ ID NO:8), Probe #18; ALOX12: 5′-[…] (SEQ ID NO:9), 5′-agccaggtcgtcaggag (SEQ ID NO:10), Probe #32; ALOX15: 5′-[…] (SEQ ID NO:11), 5′-[…] (SEQ ID NO:12), Probe #76; ALOX15B: 5′-[…] (SEQ ID NO:13), 5′-actgggaggcgaagaagg (SEQ ID NO:14), Probe #51; AKR1C1: 5′-catgcctgtcctgggattt (SEQ ID NO:15), 5′-[…] (SEQ ID NO:16), Probe #49; AKR1C2: 5′-ctatgcgcctgcagaggt (SEQ ID NO:17), 5′-[…] (SEQ ID NO:18), Probe #31; AKR1C3: 5′-[…] (SEQ ID NO:19), 5′-[…] (SEQ ID NO:20), Probe #78; CYSLTR2: 5′-[…] (SEQ ID NO:21), 5′-[…] (SEQ ID NO:22), Probe #18; DPEP1: 5′-gacgtcctgaggctggtg (SEQ ID NO:23), 5′-[…] (SEQ ID NO:24), Probe #9 (SEQ ID NO:25), ELOVL2: 5′-[…] (SEQ ID NO:26), 5′-[…] (SEQ ID NO:27), Probe #53; ELOVL4: 5′-catttggcccatggattc (SEQ ID NO:28), 5′-[…] (SEQ ID NO:29), Probe #31; ELOVL5: 5′-cccttccatgcgtccata (SEQ ID NO:30), 5′-[…] (SEQ ID NO:31), Probe #31; EPHX2: 5′-ttctgctggacaccctgaa (SEQ ID NO:32), 5′-[…] (SEQ ID NO:33), Probe #45; GPX4: 5′-ttcccgtgtaaccagttcg (SEQ ID NO:34), 5′-[…] (SEQ ID NO:35), Probe #36; LTA4H: 5′-ctgctctcacggtccagtc (SEQ ID NO:36), 5′-[…] (SEQ ID NO:37), Probe #64; LTBR2: 5′-[…] (SEQ ID NO:38), 5′-[…] (SEQ ID NO:39), Probe #33; LTC4S: 5′-[…] (SEQ ID NO:40), 5′-[…] (SEQ ID NO:41), Probe #18; PTGDS: 5′-[…] (SEQ ID NO:42), 5′-[…] (SEQ ID NO:43), Probe #36; PTGES: 5′-agagatgcctgcccacag (SEQ ID NO:44), 5′-tggccaccacgtacatctt (SEQ ID NO:45), Probe #4; PTGES2: 5′-[…] (SEQ ID NO:46), 5′-[…] (SEQ ID NO:47), Probe #49; PTGES3 (SEQ ID NO:48), 5′-[…] (SEQ ID NO:49), 5′-[…] (SEQ ID NO:50), Probe #48; PTGIS: 5′-[…] (SEQ ID NO:51), 5′-[…] (SEQ ID NO:52), Probe #45; PTGR1: 5′-atgatggggcagcaagtg (SEQ ID NO:53), 5′-cccatcagaaatggagtgc (SEQ ID NO:54), Probe #64; PTGS1: 5′-[…] (SEQ ID NO:55), 5′-gtggtggtccatgttcctg (SEQ ID NO:56), Probe #81; PTGS2: 5′-gatccccagggctcaaac (SEQ ID NO:57), 5′-[…] (SEQ ID NO:58), Probe #61; TBXAS1: 5′-[…] (SEQ ID NO:59), 5′-tgcctcccgtgtgaatct (SEQ ID NO:60), Probe #73; AREG: 5′-[…] (SEQ ID NO:61), 5′-[…] (SEQ ID NO:62), Probe #73; CCL2: 5′-AGTCTCTGCCGCCCTTCT (SEQ ID NO:63), 5′-GTGACTGGGGCATTGATTG (SEQ ID NO:64), Probe #40; CCL27: 5′-[…] (SEQ ID NO:65), 5′-gctgggtggcagtaggaat (SEQ ID NO:66), Probe #18; CXCL1: 5′-[…] (SEQ ID NO:67), 5′-[…] (SEQ ID NO:68), Probe #52; HGF: 5′-[…] (SEQ ID NO:69), 5′-[…] (SEQ ID NO:70), Probe #49; ILIA: 5′-[…] (SEQ ID NO:71), 5′-[…] (SEQ ID NO:72), Probe #6; IL1B: 5′-[…] (SEQ ID NO:73), 5′-[…] (SEQ ID NO:74), Probe #78; IL6: 5′-[…] (SEQ ID NO:75), 5′-gaaggcagcaggcaacac (SEQ ID NO:76), Probe #45; IL8: 5′-[…] (SEQ ID NO:77), 5′-atggttccttccggtggt (SEQ ID NO:78), Probe #72; IL10: 5′-[…] (SEQ ID NO:79), 5′-[…] (SEQ ID NO:80), Probe #67; MMP3: 5′-[…] (SEQ ID NO:81), 5′-[…] (SEQ ID NO:82), Probe #36; PDGFA: 5′-[…] (SEQ ID NO:83), 5′-[…] (SEQ ID NO:84), Probe #80; VEGF: 5′-[…] (SEQ ID NO:85), 5′-[…] (SEQ ID NO:86), Probe #50; P21WAF1(CDKN1A): 5′-[…]

[3] = system: IL-6 secretion; assay: IL-6 ELISA on non-senescent cells treated with prostaglandins; settings: 10 μM, 10 days
Protocol: Human fetal lung fibroblasts (IMR-90) were cultured in Dulbecco's modified eagle medium (DMEM) supplemented with 10% FBS and penicillin/streptomycin. LL 29 (AnHa) cells were obtained from the ATCC and growth to confluence using the ATCC protocol, but were subcultured as described for IMR-90 before initiation of all experiments. Quiescence was induced by replacing culture media with media containing 0.2% FBS. MCF-7 and MDA-MB-231 breast cancer cells were cultured in RPMI supplemented with 10% FBS and penicillin/streptomycin. All cells were cultured at 3% O2, and used between 25 and 40 population doublings. All cells were mycoplasma free.
3×10^4 cells in 12-well plates were treated as indicated in the text, and cultured in 0.5-1 ml serum-free DMEM for 24 hr. CM were collected and clarified at 2,000×g for 10 min. Supernatants were transferred to a tube; cells were trypsinized and counted. CM (2.5 μl) were analyzed by bead-based ELISAs (AlphaLISA, Perkin-Elmer) as instructed by the manufacturer and normalized to cell number.

[4] = system: IMR-90 fibroblasts depleted of p53 by shRNA; assay: Prostaglandin treatment of p53-depleted (shp53) IMR-90 fibroblasts (Ki67, cleaved caspase 3); settings: shp53 cells, 3 days
Protocol: For EdU labeling, cells were cultured with EdU (10 μM) for 24 h, fixed in 4% buffered formalin for 10 min, washed in PBS, and permeabilized in 0.5% Triton X-100 for 30 min. Cells were treated as instructed by the manufacturer Life Technologies Cat #C10337). For immunofluorescence, cells were blocked in 10% normal goat serum for 30 min, washed, and incubated overnight in antibodies to Ki67 (Abcam) or cleaved caspase 3 (Cell Signaling). Cell were then washed, incubated in fluorescent secondary antibodies, and mounted using vectashield mounting medium with DAPI.

SMILES	PTGES mRNA [1]	cell size and proliferation once prostaglandin was removed ([2]; 10 μM 7 days, then 10 days release)	senescence-associated beta-galactosidase ([2]; 10 μM, 10 days)	SASP factor mRNAs ([1]; for PGJ2 and 15d-PGJ2 most factors except VEGF and PDGF)	IL-6 secretion [3]	apoptosis (positivity for cleaved caspase 3) [4]	continued cell division (Ki67 positivity) after loss of p53 [4]	levels of LMNB1 and cellular HMGB1 ([2]; 10 μM, 10 days)	p21 gene expression ([2]; 10 μM, 10 days)	p21 protein accumulation ([2]; 10 μM, 10 days, immunoblot)	p53 stabilization ([2]; 10 μM, 10 days, immunoblot)	p53 phosphorylation or acetylation ([2]; 10 μM, 10 days, western blot)	expression of MMP3 and secretion of IL-6 on removal of the prostaglandin ([2]; release after 7 days at 10 μM)
CCCCC[C@H](O)/C=C/[C@H]1[C@H](O)CC(=O)[C@@H]1C/C=C\CCCC(=O)O [PGE2, prostaglandin E2]	elevated	became smaller and resumed proliferation	induced	–	–	–	–	–	–	–	–	–	–
CCCCC[C@H](O)/C=C/[C@H]1C(=O)C=C[C@@H]1C/C=C\CCCC(=O)O [PGJ2]	–	–	induced	strongly induced	highest induction	underwent apoptosis	did not allow	reduced levels	induced	induced	stabilized	without increasing	reduced
